Data published in US10017453B2, “Pharmaceutically acceptable salts of fatty acids” (Dignity Sciences Limited, priority 2013, dated 2018).
Values after ≈ are worked out from the molar mass of the structure shown.

Legend:
[1] = Chemical stability at ambient temperature under vacuum for 8 days; assay type: physicochemical
Description: Twenty four co-formers and acids were used to screen for stable forms of 15-HETrE but most yielded oils or gels. Salts with improved handling properties were isolated from the screen: sodium, ornithine, lysine, meglumine and piperazine, but all were poorly crystalline.
Properties of 15-HETrE salts prepared according to Examples 4-7 were compared against each other and against 15-HETrE free acid API.

[2] = Solvent-induced degradation of 15-(S)-HETrE lysine salt (ethyl acetate or methanol, overnight, UPLC); assay type: physicochemical
Experimental: An experiment to determine the degradation of 15-(S)-HETrE lysine salt, if any, when contacted with ethyl acetate or methanol. 15-(S)-HETrE lysine salt (100 mg) was dissolved in solvent (1 mL) and stirred overnight.

[3] = 8 Day Stability 40/75% RH of solids from the salt/cocrystal screen; assay type: physicochemical; conditions: 8 days
[4] = Reslurry of 15-(S)-HETrE lysine salt in ethyl acetate (impurity profile, NMR ratio); assay type: physicochemical
Experimental: An experiment was conducted to determine if the ratio of 15-(S)-HETrE to lysine would change after exposure to ethyl acetate. 15-(S)-HETrE lysine salt (100 mg) was suspended in HPLC grade ethyl acetate (1 mL) and stirred vigorously overnight at room temperature. The suspension was then filtered as described in previous examples. The impurity profiles of the starting 15-(S)-HETrE lysine salt (“before slurry”) and the slurried, filtered salt (“after reslurry”) are shown in Table 25.
NMR spectroscopy confirmed no change in the ratio of 15-(S)-HETrE-to-lysine ratio.

[5] = Qualitative solubility observations of the salts; assay type: physicochemical
Experimental: An alternative method to prepare 15-HETrE sodium salt by slurrying and avoid need for rotary evaporation could not be found. […] Scale up and characterization was completed for 15-HETrE sodium salt using rotary evaporation from 10% aqueous EtOH, then EtOH. […] Purity as measured by UPLC analysis was ˜81%.
Products of each of the Reactions were white in appearance. Filtration was carried out with a sintered funnel (no. 3, 10 mm diameter) under mild vacuum. Some filter cake products were yellow in appearance. The first ˜200 μL of filtrate were transferred into an HPLC vial. Filtration of the remaining reaction mixture (alternating between high and medium vacuum) yielded a filter cake that was transferred to a vacuum chamber and dried overnight before being stored in a freezer.

[6] = Dynamic vapor sorption (DVS) analysis; assay type: physicochemical; conditions: for Hygroscopicity according to the European Pharmacopeia classification: DVS
Description: Post DVS XRPD analysis was not conducted as the material deliquesced.

[7] = Storage stability up to 24 weeks, free acid versus lysine salt (FIG. 28); assay type: physicochemical
Experimental: The 15-HETrE-lysine salt is stable at 20° C. and 40% humidity as well as at 40° C. and 75% humidity, making the lysine salt useful for pharmaceutical applications. 15-HETrE lysine salt was prepared on a larger scale for the crystallization screen as a white powder.

[8] = ambient temperature; probably due to uptake of moisture
[9] = Degradation of 15-(S)-HETrE on exposure to isopropyl acetate (overnight, UPLC); assay type: physicochemical
Experimental: An experiment was conducted to examine whether any degradation would be observed upon exposure of 15-(S)-HETrE to isopropyl acetate. 15-(S)-HETrE (100 mg) was dissolved in isopropyl acetate (1 mL) and stirred overnight. This was sampled directly for UPLC analysis (Table 39).

[10] = Solubility screen of as-received 15-HETrE (aliquot addition method); assay type: physicochemical; conditions: for solubility: organic solvent or mixture, estimated, read-out: Solubility Range
Description: This is believed to be due to degradation of 15-HETrE, therefore HFIPA was not used in any further studies of 15-HETrE.

[11] = in ethyl acetate, stirred overnight
[12] = original salt, before solvent contact
[13] = after reslurry in ethyl acetate, overnight, room temperature
[14] = before exposure to isopropyl acetate
[15] = in isopropyl acetate, stirred overnight

SMILES: CCCCCC(O)/C=C/C=C\C/C=C\CCCCCCC(=O)O.NCCCC[C@H](N)C(=O)O (stereo not shown) [15-HETrE lysine salt, 15-Hydroxy-eicosa-8(Z),11(Z),13(E)-trienoic acid lysine salt]
- Chemical stability [1]: chemically stable
- HETrE (RRT 1) peak area [2, 11]: 94.20%
- IMP 1 (RRT 0.62) peak area [2, 11]: 0.05%
- IMP 2 (RRT 0.64) peak area [2, 11]: 0.86%
- IMP 3 (RRT 0.69) peak area [2, 11]: 0.96%
- IMP 4 (RRT 0.91) peak area [2, 11]: 1.30%
- IMP 5 (RRT 1.03) peak area [2, 11]: 0.29%
- IMP 6 (RRT 1.1) peak area [2, 11]: 1.35%
- IMP 7 (RRT 1.75) peak area [2, 11]: 0.14%
- HETrE (RRT 1) peak area ([2]; in methanol, stirred overnight): 95.40%
- IMP 1 (RRT 0.62) peak area ([2]; in methanol, stirred overnight): 0.03%
- IMP 2 (RRT 0.64) peak area ([2]; in methanol, stirred overnight): 0.24%
- IMP 3 (RRT 0.69) peak area ([2]; in methanol, stirred overnight): 0.45%
- IMP 4 (RRT 0.91) peak area ([2]; in methanol, stirred overnight): 1.16%
- IMP 5 (RRT 1.03) peak area ([2]; in methanol, stirred overnight): 0.13%
- IMP 6 (RRT 1.1) peak area ([2]; in methanol, stirred overnight): 1.34%
- IMP 7 (RRT 1.75) peak area ([2]; in methanol, stirred overnight): 0.31%
- HETrE (RRT 1) peak area [2, 12]: 95.67%
- IMP 1 (RRT 0.62) peak area [2, 12]: 0.20%
- IMP 2 (RRT 0.64) peak area [2, 12]: 0.12%
- IMP 3 (RRT 0.69) peak area [2, 12]: 0.27%
- IMP 4 (RRT 0.91) peak area [2, 12]: 1.30%
- IMP 5 (RRT 1.03) peak area [2, 12]: 0%
- IMP 6 (RRT 1.1) peak area [2, 12]: 1.44%
- IMP 7 (RRT 1.75) peak area [2, 12]: 0.55%
- 8 Day Stability 40/75% RH [3]: 97% purity
- HETrE (RRT 1) in impurity profile [4, 13]: 95.69
- IMP 1 (RRT 0.62) in impurity profile [4, 13]: 0.16
- IMP 2 (RRT 0.64) in impurity profile [4, 13]: 0.39
- IMP 3 (RRT 0.69) in impurity profile [4, 13]: 0.16
- IMP 4 (RRT 0.91) in impurity profile [4, 13]: 1.08
- IMP 5 (RRT 1.03) in impurity profile [4, 13]: 0.07
- IMP 6 (RRT 1.1) in impurity profile [4, 13]: 1.47
- IMP 7 (RRT 1.75) in impurity profile [4, 13]: 0.11
- HETrE (RRT 1) in impurity profile ([4]; before reslurry): 96.66
- IMP 1 (RRT 0.62) in impurity profile ([4]; before reslurry): 0.04
- IMP 2 (RRT 0.64) in impurity profile ([4]; before reslurry): 0.09
- IMP 3 (RRT 0.69) in impurity profile ([4]; before reslurry): 0.11
- IMP 4 (RRT 0.91) in impurity profile ([4]; before reslurry): 1.01
- IMP 5 (RRT 1.03) in impurity profile ([4]; before reslurry): 0.15
- IMP 6 (RRT 1.1) in impurity profile ([4]; before reslurry): 1.39
- IMP 7 (RRT 1.75) in impurity profile ([4]; before reslurry): 0.26
- Change in 15-(S)-HETrE-to-lysine ratio after reslurry ([4]; ethyl acetate, overnight, room temperature, NMR): no change
- solubility ([5]; DMSO): insoluble
- solubility ([5]; chloroform): insoluble
- solubility ([5]; water): dissolves readily
- Hygroscopicity according to the European Pharmacopeia classification [6]: hygroscopic
- DVS behaviour ([6]; above 80% RH): deliquesced
- DVS weight gain ([6]; below 70% RH): less than 1%
- DVS additional weight gain ([6]; between 70-80% RH): 1%
- Storage stability ([7]; 20° C. and 40% humidity): stable
- Storage stability ([7]; 40° C. and 75% humidity): stable

SMILES: C1CNCCN1.CCCCCC(O)/C=C/C=C\C/C=C\CCCCCCC(=O)O (stereo not shown) [15-HETrE piperazine salt, 15-Hydroxy-eicosa-8(Z),11(Z),13(E)-trienoic acid piperazine salt]
- Behaviour on exposure to air [8]: appears to flow on exposure to air at ambient temperature

SMILES: CCCCCC(O)/C=C/C=C\C/C=C\CCCCCCC(=O)[O-].[Na+] (stereo not shown) [15-HETrE sodium salt, 15-Hydroxy-eicosa-8(Z),11(Z),13(E)-trienoic acid sodium salt]
- 8 Day Stability 40/75% RH [3]: 95% purity
- solubility ([5]; water used in the slurry preparation, salt did not precipitate): highly soluble
- Hygroscopicity according to the European Pharmacopeia classification [6]: very hygroscopic
- DVS weight gain ([6]; below 40% RH): less than 1%
- DVS behaviour ([6]; high RH): deliquesced

SMILES: CCCCCC(O)/C=C/C=C\C/C=C\CCCCCCC(=O)O (stereo not shown) [15-HETrE, 15-Hydroxy-eicosa-8(Z),11(Z),13(E)-trienoic acid]
- HETrE (RRT 1) peak area [9, 14]: 91.38%
- IMP 1 (RRT 0.62) peak area [9, 14]: 0.12%
- IMP 2 (RRT 0.64) peak area [9, 14]: 0.51%
- IMP 3 (RRT 0.66) peak area [9, 14]: 0.89%
- IMP 4 (RRT 0.69) peak area [9, 14]: 0.13%
- IMP 5 (RRT 0.72) peak area [9, 14]: 1.29%
- IMP 6 (RRT 0.85) peak area [9, 14]: 0.16%
- IMP 7 (RRT 0.91) peak area [9, 14]: 1.17%
- IMP 8 (RRT 0.98) peak area [9, 14]: 0.29%
- IMP 9 (RRT 1.03) peak area [9, 14]: 0.18%
- IMP 10 (RRT 1.1) peak area [9, 14]: 1.41%
- IMP 11 (RRT 1.75) peak area [9, 14]: 0.88%
- HETrE (RRT 1) peak area [9, 15]: 85.56%
- IMP 1 (RRT 0.62) peak area [9, 15]: 0.22%
- IMP 2 (RRT 0.64) peak area [9, 15]: 1.48%
- IMP 3 (RRT 0.66) peak area [9, 15]: 1.47%
- IMP 4 (RRT 0.69) peak area [9, 15]: 0.19%
- IMP 5 (RRT 0.72) peak area [9, 15]: 3.02%
- IMP 6 (RRT 0.85) peak area [9, 15]: 0.43%
- IMP 7 (RRT 0.91) peak area [9, 15]: 1.56%
- IMP 8 (RRT 0.98) peak area [9, 15]: 0.62%
- IMP 9 (RRT 1.03) peak area [9, 15]: 0.28%
- IMP 10 (RRT 1.1) peak area [9, 15]: 1.79%
- IMP 11 (RRT 1.75) peak area [9, 15]: 1.14%
- Stability when combined with HFIPA ([10]; 1,1,1,3,3,3-hexafluoroisopropyl acrylate (HFIPA), believed to be degradation): rapid color change from clear, colorless to blood red to deep purple/black
- solubility ([10]; Acetone): 3120 to 9360 µg/mL (≈ 9.67 to 29 mM)
- solubility ([10]; Acetonitrile (ACN)): 930 to 2780 µg/mL (≈ 2.88 to 8.62 mM)
- solubility ([10]; DCM): 1170 to 3520 µg/mL (≈ 3.63 to 10.9 mM)
- solubility ([10]; DMF): 1230 to 3680 µg/mL (≈ 3.81 to 11.4 mM)
- solubility ([10]; Dioxane): 1660 to 4980 µg/mL (≈ 5.15 to 15.4 mM)
- solubility ([10]; Ethanol (EtOH)): 1260 to 3780 µg/mL (≈ 3.91 to 11.7 mM)
- solubility ([10]; Ethyl acetate (EtOAc)): 1890 to 5660 µg/mL (≈ 5.86 to 17.6 mM)
- solubility ([10]; Methanol (MeOH)): 2120 to 6360 µg/mL (≈ 6.57 to 19.7 mM)
- solubility ([10]; THF): 3320 to 9960 µg/mL (≈ 10.3 to 30.9 mM)
- Miscibility in solvents ([10]; ten solvents tested): miscible in all solvents tested
- Storage stability ([7]; stored up to 24 weeks at −20° C., 2-8° C., 25° C.): unstable and degrades at all conditions with the exception of −20 °C
